According to paper PMC8752837, “Structural basis of BAK activation in mitochondrial apoptosis initiation” (Nature Communications, 2022):
Like-named read-outs stand apart in the source and are kept apart here.

How the values were obtained:
GST-BAK = molecular target: T1, GST-BAK (Homo sapiens, UniProt Q16611); assay: Competitive fluorescence polarization assay (displacement of BID BH3 SAHB-F); type: binding
T1 construct: made in house
T1 sequence (Q16611 1-211): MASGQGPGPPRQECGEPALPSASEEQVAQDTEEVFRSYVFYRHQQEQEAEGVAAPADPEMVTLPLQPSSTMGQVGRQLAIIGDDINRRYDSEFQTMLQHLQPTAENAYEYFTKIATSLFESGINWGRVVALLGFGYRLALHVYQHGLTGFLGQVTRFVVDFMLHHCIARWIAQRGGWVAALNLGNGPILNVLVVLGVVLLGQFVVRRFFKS
Source text: We also tested the monosubstituted peptides in competitive fluorescence polarization (FP) binding assays, which measure displacement from GST-BAK of BID BH3 stabilized alpha helix of BCL-2 proteins (SAHB) C-terminally tagged with fluorescein and thus informs on peptide binding affinity.
We carried out fluorescence polarization assays, measuring the displacement of the fluorescent peptide BID BH3 SAHB-F from GST-BAK, in 384-well Greiner black polystyrene plates with flat bottom (Sigma-Aldrich). Master mix consisted of 50 mM Tris-HCl pH 7.5, 50 mM KCl, 0.1 mg/mL BSA, 2 mM DTT, 0.005% Tween-20, 10 nM BID BH3 SAHB-F, and 1 µM GST-BAK. We pin transferred peptides using Biomek FX (Beckman Coulter Life Sciences, IN) to achieve final concentration of 500−0.2 µM in 20 µL final volume. We gently centrifuged plates to remove air bubbles for 1 min at 1000 rpm, and incubated them for 60 min at RT. […] Free peptide controls in each plate consisted of only BID BH3 SAHB-F and bound peptide controls containing BID BH3 SAHB-F + GST-BAK. We derived Z’-values using the equation [1 − 3(stdev^L + stdev^H)]/(average^H − average^L), where L is the free peptide control and H is the bound peptide control. […] We processed and visualized data using the software Robust Investigation of Screening Experiments (RISE) developed in house in the Pipeline Pilot platform (Accelrys, v.8.5.0). We performed at least three independent dose-response experiments for each peptide. We estimated IC50 values in RISE and GraphPad Prism v.8.0a.

Human BAK-∆TM-His6 (BAK) = molecular target: T2, Human BAK-∆TM-His6 (BAK) (Homo sapiens, UniProt Q16611); assay: Liposome permeabilization assay (ANTS/DPX dye release from LUVs): activation of WT BAK by BH3 peptides;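 as to AUC for Experiment-2 (Mean): traces normalized between buffer minimum and 3% CHAPS maximum fluorescence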;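 as to AUC for Experiment-3 (Mean): traces normalized between buffer minimum and 3% CHAPS maximum fluorescence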; type: biochemical; design: AUC for Experiment-2 (Mean) / AUC for Experiment-3 (Mean) / AUC for Experiment-1 (Mean):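 traces normalized between buffer minimum and 3% CHAPS maximum fluorescence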; settings: for AUC for Experiment-1 (Mean) / AUC for Experiment-2 (Mean) / AUC for Experiment-3 (Mean): AUC 0-88 mins of liposome permeabilization; for AUC for Experiment-1 (Mean): Experiment-1, mean of N replicates; for AUC for Experiment-2 (Mean): Experiment-2, mean of N replicates; for AUC for Experiment-3 (Mean): Experiment-3, mean of N replicates; for EC50: Fig. 4e, AUC vs peptide dose (Suppl. Fig. 6b), n = 2 experiments each of n = 3 technical replicates, read-out: EC50 LP; for EC50 / direct BAK activation compared to WT BID BH3: 50 nM BAK; for direct BAK activation compared to WT BID BH3: liposome permeabilization, Fig. 4c, e
T2 construct: C-terminus truncated recombinant human BAK containing C-terminal 6× histidine tag (MEAS-BAK); made in house; host or cells: E. coli T7 Express pLac I/Y
T2 sequence (Q16611 1-186 limits assumed): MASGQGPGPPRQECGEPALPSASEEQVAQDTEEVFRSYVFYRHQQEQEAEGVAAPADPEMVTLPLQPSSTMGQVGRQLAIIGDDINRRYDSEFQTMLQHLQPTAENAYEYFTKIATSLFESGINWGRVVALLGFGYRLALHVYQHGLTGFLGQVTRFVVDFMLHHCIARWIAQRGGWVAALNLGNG
Description: We performed liposome permeabilization assays as previously described[43]–[46]. […] We mixed the lipid film in ANTS/DPX solution by vortexing and sonication (~15 min) followed by extrusion through polycarbonate membrane of 2 μm pore size (Avanti Polar lipids) to generate homogenous large unilamellar vesicles (LUVs). We separated LUVs from free ANTS/DPX by S500 size exclusion chromatography and stored them at 4 °C in the dark. We prepared peptide and protein dilutions in 96-well black flat bottom plates (Costar) kept on ice. […] We quantified liposome permabilization by integrating area under curve (AUC) of normalized traces based on the Simpson’s equation, and analyzed that data in Excel and GraphPad Prism. AUC measurements reflect the kinetic and extent of liposome permeabilization and provide quantitative means for comparison between different experimental conditions (e.g., BAK mutants with gross or partial variation in activity).

[1] = competitive FP, mean of the experiments (replicated 4-9 times), read-out: IC50 Mean
[2] = displacement of 10 nM BID BH3 SAHB-fluorescein from 1 µM GST-BAK, peptide 500−0.2 µM, 60 min RT, mean ± SD, n = 9 experiments, read-out: IC50 FP

**Q.** For `CC[C@H](C)[C@H](NC(=O)[C@H](CC(N)=O)NC(=O)[C@H](CCCNC(=N)N)NC(=O)[C@@H](NC(=O)[C@@H](NC(=O)[C@H](CC(=O)O)NC(=O)[C@H](CCC(=O)O)NC(C)=O)[C@@H](C)CC)[C@@H](C)CC)C(=O)N[C@@H](C)C(=O)N[C@@H](CCCNC(=N)N)C(=O)N[C@@H](Cc1c[nH]cn1)C(=O)N[C@@H](CC(C)C)C(=O)N[C@@H](C)C(=O)N[C@@H](CCC(N)=O)C(=O)N[C@H](C(=O)NCC(=O)N[C@@H](CC(=O)O)C(=O)N[C@@H](CO)C(=O)N[C@@H](CCSC)C(=O)N[C@@H](CC(=O)O)C(=O)N[C@@H](CCCNC(=N)N)C(=O)N[C@@H](CO)C(=O)N[C@@H](Cc1c[nH]c2ccccc12)C(N)=O)C(C)C` [W(5)], which IC50 (GST-BAK; competitive FP, Experiment-1) is on record?
**A.** 10.88 µM

**Q.** What about the IC50 (GST-BAK; competitive FP, Experiment-2) of the same compound?
**A.** 9.859 µM

**Q.** What about the IC50 (GST-BAK; competitive FP, Experiment-3) of the same compound?
**A.** 9.959 µM

**Q.** And the IC50 (GST-BAK; competitive FP, Experiment-4)?
**A.** 6.417 µM

**Q.** What about the IC50 (GST-BAK; competitive FP, Experiment-5) of the same compound?
**A.** 8.231 µM

**Q.** What about the IC50 (GST-BAK; competitive FP, Experiment-6) of the same compound?
**A.** 7.397 µM

**Q.** What about the IC50 (GST-BAK; competitive FP, Experiment-7) of the same compound?
**A.** 10.36 µM

**Q.** What about the IC50 (GST-BAK; competitive FP, Experiment-8) of the same compound?
**A.** 8.244 µM

**Q.** What about the IC50 (GST-BAK; competitive FP, Experiment-9) of the same compound?
**A.** 7.774 µM

**Q.** What about the IC50 (GST-BAK; [1]) of the same compound?
**A.** 8.8 µM

**Q.** And the “AUC for Experiment-1 (Mean)” value (Human BAK-∆TM-His6 (BAK); 1 μM peptide + 50 nM BAK)?
**A.** 15.613

**Q.** What about the “AUC for Experiment-2 (Mean)” value (Human BAK-∆TM-His6 (BAK); 1 μM peptide + 50 nM BAK) of the same compound?
**A.** 13.293

**Q.** What about the “AUC for Experiment-3 (Mean)” value (Human BAK-∆TM-His6 (BAK); 1 μM peptide + 50 nM BAK) of the same compound?
**A.** 17.537

**Q.** What about the “AUC for Experiment-1 (Mean)” value (Human BAK-∆TM-His6 (BAK); 50 μM peptide + 50 nM BAK) of the same compound?
**A.** 10.056

**Q.** What about the “AUC for Experiment-2 (Mean)” value (Human BAK-∆TM-His6 (BAK); 50 μM peptide + 50 nM BAK) of the same compound?
**A.** 8.1041

**Q.** What about the “AUC for Experiment-3 (Mean)” value (Human BAK-∆TM-His6 (BAK); 50 μM peptide + 50 nM BAK) of the same compound?
**A.** 9.4463

**Q.** And the EC50 (Human BAK-∆TM-His6 (BAK))?
**A.** 0.11 ± 0.0577 µM

**Q.** What does the source list for Ac-EDIIRNIARHLAQFGDSMDRSI-NH2 [F(3)]?
**A.** IC50 (GST-BAK; [2]): 11.3 ± 3.9 µM; AUC for Experiment-1 (Mean) (Human BAK-∆TM-His6 (BAK); 1 μM peptide + 50 nM BAK): 18.713; AUC for Experiment-2 (Mean) (Human BAK-∆TM-His6 (BAK); 1 μM peptide + 50 nM BAK): 17.421; AUC for Experiment-3 (Mean) (Human BAK-∆TM-His6 (BAK); 1 μM peptide + 50 nM BAK): 16.388; AUC for Experiment-1 (Mean) (Human BAK-∆TM-His6 (BAK); 50 μM peptide + 50 nM BAK): 17.267; AUC for Experiment-2 (Mean) (Human BAK-∆TM-His6 (BAK); 50 μM peptide + 50 nM BAK): 18.39; AUC for Experiment-3 (Mean) (Human BAK-∆TM-His6 (BAK); 50 μM peptide + 50 nM BAK): 17.889; EC50 (Human BAK-∆TM-His6 (BAK)): 0.11 ± 0.0161 µM; direct BAK activation compared to WT BID BH3 (Human BAK-∆TM-His6 (BAK)): gain in direct BAK activation compared to WT BID BH3

**Q.** Ac-EDIIRNIARHLAQMGDSMDRSI-NH2 [M(3)] was tested. Which IC50 (GST-BAK; competitive FP, Experiment-1) did it give?
**A.** 5.395 µM

**Q.** What about the IC50 (GST-BAK; competitive FP, Experiment-2) of the same compound?
**A.** 4.243 µM

**Q.** And the IC50 (GST-BAK; competitive FP, Experiment-3)?
**A.** 5.717 µM

**Q.** What about the IC50 (GST-BAK; competitive FP, Experiment-4) of the same compound?
**A.** 4.044 µM

**Q.** And the IC50 (GST-BAK; competitive FP, Experiment-5)?
**A.** 4.59 µM

**Q.** What about the IC50 (GST-BAK; competitive FP, Experiment-6) of the same compound?
**A.** 4.39 µM

**Q.** What about the IC50 (GST-BAK; competitive FP, Experiment-7) of the same compound?
**A.** 3.925 µM

**Q.** What about the IC50 (GST-BAK; competitive FP, Experiment-8) of the same compound?
**A.** 4.319 µM

**Q.** What about the IC50 (GST-BAK; competitive FP, Experiment-9) of the same compound?
**A.** 4.861 µM

**Q.** And the IC50 (GST-BAK; [1])?
**A.** 4.6 µM

**Q.** And the “AUC for Experiment-1 (Mean)” value (Human BAK-∆TM-His6 (BAK); 1 μM peptide + 50 nM BAK)?
**A.** 20.936

**Q.** And the “AUC for Experiment-2 (Mean)” value (Human BAK-∆TM-His6 (BAK); 1 μM peptide + 50 nM BAK)?
**A.** 21.86

**Q.** And the “AUC for Experiment-3 (Mean)” value (Human BAK-∆TM-His6 (BAK); 1 μM peptide + 50 nM BAK)?
**A.** 19.004

**Q.** And the “AUC for Experiment-1 (Mean)” value (Human BAK-∆TM-His6 (BAK); 50 μM peptide + 50 nM BAK)?
**A.** 18.852

**Q.** What about the “AUC for Experiment-2 (Mean)” value (Human BAK-∆TM-His6 (BAK); 50 μM peptide + 50 nM BAK) of the same compound?
**A.** 17.743

**Q.** What about the “AUC for Experiment-3 (Mean)” value (Human BAK-∆TM-His6 (BAK); 50 μM peptide + 50 nM BAK) of the same compound?
**A.** 12.625

**Q.** And the EC50 (Human BAK-∆TM-His6 (BAK))?
**A.** 0.114 ± 0.0225 µM

**Q.** What about the “direct BAK activation compared to WT BID BH3” value (Human BAK-∆TM-His6 (BAK)) of the same compound?
**A.** gain in direct BAK activation compared to WT BID BH3

**Q.** Which results are given for Ac-EDIIRNIARHLAQVGDSFDRSI-NH2 [F(4)]?
**A.** IC50 (GST-BAK; [2]): 11.9 ± 3.7 µM; AUC for Experiment-1 (Mean) (Human BAK-∆TM-His6 (BAK); 1 μM peptide + 50 nM BAK): 9.5438; AUC for Experiment-2 (Mean) (Human BAK-∆TM-His6 (BAK); 1 μM peptide + 50 nM BAK): 9.663; AUC for Experiment-3 (Mean) (Human BAK-∆TM-His6 (BAK); 1 μM peptide + 50 nM BAK): 8.9802; AUC for Experiment-1 (Mean) (Human BAK-∆TM-His6 (BAK); 50 μM peptide + 50 nM BAK): 10.729; AUC for Experiment-2 (Mean) (Human BAK-∆TM-His6 (BAK); 50 μM peptide + 50 nM BAK): 10.153; AUC for Experiment-3 (Mean) (Human BAK-∆TM-His6 (BAK); 50 μM peptide + 50 nM BAK): 6.338; EC50 (Human BAK-∆TM-His6 (BAK)): 0.229 ± 0.0111 µM; direct BAK activation compared to WT BID BH3 (Human BAK-∆TM-His6 (BAK)): less direct BAK activation compared to WT BID BH3
